Test results as given in ChEMBL document CHEMBL4145665, “Structure-Activity Relationship of Novel and Selective Biaryl-Chroman GPR40 AgoPAMs” (ACS Med Chem Lett, 2018).

Molecular target: T1, Free fatty acid receptor 1 (Homo sapiens, UniProt O14842)
Test: Agonist activity at recombinant human GPR40 expressed in HEK293 cells assessed as increase in IP1 accumulation measured after 60 mins by HTRF assay relative to AM-1638
Type: functional, cell-based
Settings: not given

T1 sequence (O14842 whole entry): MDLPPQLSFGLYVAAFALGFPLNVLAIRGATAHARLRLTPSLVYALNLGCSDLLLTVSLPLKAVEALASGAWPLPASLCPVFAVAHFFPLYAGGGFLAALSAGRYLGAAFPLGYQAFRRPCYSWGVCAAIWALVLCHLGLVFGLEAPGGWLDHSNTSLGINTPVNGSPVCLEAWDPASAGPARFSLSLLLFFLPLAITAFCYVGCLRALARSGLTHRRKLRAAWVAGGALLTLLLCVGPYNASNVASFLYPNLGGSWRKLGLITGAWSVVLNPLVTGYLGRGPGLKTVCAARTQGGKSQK

Row | max activation [%] | Structure (SMILES)
1 | 535 | COc1cccc(-c2ccc(C3CCc4ccc([C@@H](CC(=O)O)C5CC5)cc4O3)cc2)n1 (mixture of isomers)
2 | > 179 | COc1ccc(F)c(-c2ccc(C3CCc4ccc([C@H](C5CC5)[C@H](C)C(=O)O)cc4O3)cn2)c1 (stereo in doubt; 18) [listing 1 of 2 here]
3 | 385 | O=C(O)C[C@H](c1ccc2c(c1)OC(c1ccc(-c3cccc(OC(F)(F)F)c3)cc1)CC2)C1CC1 (mixture of isomers)
4 | > 179 | COc1ccc(F)c(-c2ccc(C3CCc4ccc([C@H](C5CC5)[C@H](C)C(=O)O)cc4O3)nc2)c1 (stereo in doubt; 17) [listing 1 of 2 here]

Row | Structure (SMILES) | max activation [%]
5 | COc1ccc(F)c(-c2ccc(C3CCc4ccc([C@H](C5CC5)[C@H](C)C(=O)O)cc4O3)cc2)c1 (stereo in doubt; 14) | > 179
6 | COc1cc(-c2ccc(C3CCc4ccc([C@H](C5CC5)[C@H](C)C(=O)O)cc4O3)cc2)ccn1 (stereo in doubt; 23) | > 179

Tested on: not listed separately
Test: Lipophilicity, log D of the compound at pH 7 at 100 uM by HPLC method
Type: physicochemical
Settings: buffer

Row | Structure (SMILES) | logD at 100 µM
7 | COc1cc(-c2ccc(C3CCc4ccc([C@H](C5CC5)[C@H](C)C(=O)[O-])cc4O3)cc2)c(F)cn1.[Na+] (stereo in doubt; 20) | 2.68
8 | COc1cc(-c2ccc(C3CCc4ccc([C@H](C5CC5)[C@H](C)C(=O)O)cc4O3)nc2)ccn1 (stereo in doubt; 32) | 1.74
9 | COc1cc(-c2ccc(C3CCc4ccc([C@H](C5CC5)[C@H](C)C(=O)[O-])cc4O3)c(F)c2)c(F)cn1.[Na+] (stereo in doubt; 26) | 2.97
10 | COc1ccc(F)c(-c2ccc(C3CCc4ccc([C@H](C5CC5)[C@H](C)C(=O)O)cc4O3)cn2)c1 (stereo in doubt; 18) [listing 2 of 2 here] | 2.29
11 | COc1cc(-c2ccc(C3CCc4ccc([C@H](C5CC5)[C@H](C)C(=O)[O-])cc4O3)cc2)ccn1.[Na+] (stereo in doubt; 22) | 2.3
12 | COc1cc(-c2ccc(C3CCc4ccc([C@H](C5CC5)[C@H](C)C(=O)[O-])cc4O3)nc2)c(F)cn1.[Na+] (stereo in doubt; 28) | 1.98
13 | COc1cc(-c2cnc(C3CCc4ccc([C@H](C5CC5)[C@H](C)C(=O)O)cc4O3)c(F)c2)c(F)cn1 (stereo in doubt; 30) | 2.36

Molecular target: Free fatty acid receptor 1 (Rattus norvegicus) (UniProt Q8K3T4)
Test: Agonist activity at recombinant rat GPR40 expressed in CHOK1 cells assessed as increase in IP1 accumulation measured after 60 mins by HTRF assay relative to AM-1638
Type: functional, cell-based
Settings: not given

Sequence of Free fatty acid receptor 1 (Rattus norvegicus) (Q8K3T4 whole entry): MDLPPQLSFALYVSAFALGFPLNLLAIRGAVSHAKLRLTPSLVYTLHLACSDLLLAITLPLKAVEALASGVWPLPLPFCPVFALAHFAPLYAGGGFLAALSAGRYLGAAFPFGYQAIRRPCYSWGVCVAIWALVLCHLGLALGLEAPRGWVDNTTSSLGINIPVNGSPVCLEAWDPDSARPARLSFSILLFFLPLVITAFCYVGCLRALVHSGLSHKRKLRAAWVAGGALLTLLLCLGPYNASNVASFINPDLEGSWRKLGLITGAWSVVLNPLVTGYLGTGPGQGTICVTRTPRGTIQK

Row | Structure (SMILES) | max activation [%]
14 | COc1ccc(F)c(-c2ccc(C3CCc4ccc([C@H](C5CC5)[C@H](C)C(=O)O)cc4O3)cc2)c1 (stereo in doubt; 14) | > 370

Tested on: Rattus norvegicus
Test: Antidiabetic activity in Sprague-Dawley rat assessed as inhibition of blood glucose AUC at 3 mg/kg, po treated prior to dextrose challenge and measured after 20 to 60 mins by IPGTT relative to control
Type: functional
Settings: not given

Row | Structure (SMILES) | inhibition (INH) [%]
15 | COc1cc(-c2ccc(C3CCc4ccc([C@H](C5CC5)[C@H](C)C(=O)[O-])cc4O3)cc2)c(F)cn1.[Na+] (stereo in doubt; 20) | 59
16 | COc1cc(-c2ccc(C3CCc4ccc([C@H](C5CC5)[C@H](C)C(=O)[O-])cc4O3)cc2)c(F)cn1.[Na+] (stereo in doubt; 21) | 88
17 | COc1cc(-c2ccc(C3CCc4ccc([C@H](C5CC5)[C@H](C)C(=O)[O-])cc4O3)c(F)c2)c(F)cn1.[Na+] (stereo in doubt; 26) | 72
18 | COc1cc(-c2ccc(C3CCc4ccc([C@H](C5CC5)[C@H](C)C(=O)[O-])cc4O3)c(F)c2)c(F)cn1.[Na+] (stereo in doubt; 27) | 38
19 | COc1cc(-c2ccc(C3CCc4ccc([C@H](C5CC5)[C@H](C)C(=O)[O-])cc4O3)cc2)ccn1.[Na+] (stereo in doubt; 23) | 7
20 | COc1cc(-c2ccc(C3CCc4ccc([C@H](C5CC5)[C@H](C)C(=O)[O-])cc4O3)cc2)ccn1.[Na+] (stereo in doubt; 22) | 49
21 | COc1cc(-c2ccc(C3CCc4ccc([C@H](C5CC5)[C@H](C)C(=O)[O-])cc4O3)nc2)c(F)cn1.[Na+] (stereo in doubt; 28) | 102

Same assay, conditions: Rattus norvegicus, Sprague-Dawley, po

Row | Structure (SMILES) | inhibition in vivo at 3 mg/kg [%]
22 | COc1ccc(F)c(-c2ccc(C3CCc4ccc([C@H](C5CC5)[C@H](C)C(=O)O)cc4O3)cc2)c1 (stereo in doubt; 15) | 102
23 | COc1ccc(F)c(-c2ccc(C3CCc4ccc([C@H](C5CC5)[C@H](C)C(=O)O)cc4O3)nc2)c1 (stereo in doubt; 17) [listing 2 of 2 here] | 100

Molecular target: T1, Free fatty acid receptor 1
Test: Agonist activity at recombinant human GPR40 expressed in HEK293 cells assessed as increase in IP1 accumulation measured after 60 mins by HTRF assay
Type: functional, cell-based
Settings: not given

Row | EC50 [µM] | Structure (SMILES)
24 | 0.0009 | COc1cc(-c2ccc(C3CCc4ccc([C@H](C5CC5)[C@H](C)C(=O)[O-])cc4O3)cc2)c(F)cn1.[Na+] (stereo in doubt; 20)
25 | < 0.0002 | COc1cc(-c2ccc(C3CCc4ccc([C@H](C5CC5)[C@H](C)C(=O)[O-])cc4O3)cc2)c(F)cn1.[Na+] (stereo in doubt; 21)
26 | 0.024 | COc1ccc(F)c(-c2ccc(C3CCc4ccc([C@H](C5CC5)[C@H](C)C(=O)O)cc4O3)cn2)c1 (stereo in doubt; 18) [listing 2 of 2 here]
27 | 0.013 | COc1ccc(F)c(-c2ccc(C3CCc4ccc([C@H](C5CC5)[C@H](C)C(=O)O)cc4O3)cn2)c1 (stereo in doubt; 19)
28 | < 0.0002 | COc1cc(-c2ccc(C3CCc4ccc([C@H](C5CC5)[C@H](C)C(=O)[O-])cc4O3)nc2)c(F)cn1.[Na+] (stereo in doubt; 28)
29 | 0.934 | O=C(O)C[C@H](c1ccc2c(c1)OC(c1ccc(-c3cccc(OC(F)(F)F)c3)cc1)CC2)C1CC1 (mixture of isomers)

Row | Structure (SMILES) | EC50 [µM]
30 | COc1cc(-c2ccc(C3CCc4ccc([C@H](C5CC5)[C@H](C)C(=O)[O-])cc4O3)c(F)c2)c(F)cn1.[Na+] (stereo in doubt; 26) | < 0.0002
31 | COc1ccc(F)c(-c2ccc(C3CCc4ccc([C@H](C5CC5)[C@H](C)C(=O)O)cc4O3)cc2)c1 (stereo in doubt; 15) | 0.0026

Tested on: Rattus norvegicus
Test: Antidiabetic activity in po dosed Goto Kakizaki rats assessed as plasma concentration required for reduction in blood glucose excursion at MED pretreated for 1 hr followed by dextrose challenge measured 3 hrs post dose by OGTT
Type: functional, organism-based
Settings: not given

Row | Structure (SMILES) | Cp [µM]
32 | COc1ccc(F)c(-c2ccc(C3CCc4ccc([C@H](C5CC5)[C@H](C)C(=O)O)cc4O3)cc2)c1 (stereo in doubt; 14) | 3

Molecular target: T1, Free fatty acid receptor 1
Test: Agonist activity at recombinant human GPR40 expressed in HEK293 cells assessed as increase in IP1 accumulation measured after 60 mins in presence of 100% human serum by HTRF assay relative to AM-1638
Type: functional, cell-based
Settings: not given

Row | max activation [%] | Structure (SMILES)
33 | 2.4 | COc1cccc(-c2ccc(C3CCc4ccc([C@@H](CC(=O)O)C5CC5)cc4O3)cc2)n1 (mixture of isomers)
34 | > 179 | COc1ccc(F)c(-c2ccc(C3CCc4ccc([C@H](C5CC5)[C@H](C)C(=O)O)cc4O3)cn2)c1 (stereo in doubt; 18) [listing 1 of 2 here]
35 | 73 | O=C(O)C[C@H](c1ccc2c(c1)OC(c1ccc(-c3cccc(OC(F)(F)F)c3)cc1)CC2)C1CC1 (mixture of isomers)
36 | > 179 | COc1ccc(F)c(-c2ccc(C3CCc4ccc([C@H](C5CC5)[C@H](C)C(=O)O)cc4O3)nc2)c1 (stereo in doubt; 17) [listing 1 of 2 here]

Row | Structure (SMILES) | max activation [%]
37 | COc1ccc(F)c(-c2ccc(C3CCc4ccc([C@H](C5CC5)[C@H](C)C(=O)O)cc4O3)cc2)c1 (stereo in doubt; 14) | > 179
38 | COc1cc(-c2ccc(C3CCc4ccc([C@H](C5CC5)[C@H](C)C(=O)O)cc4O3)cc2)ccn1 (stereo in doubt; 23) | > 179

Molecular target: T1, Free fatty acid receptor 1
Test: Agonist activity at recombinant human GPR40 expressed in HEK293 cells assessed as increase in IP1 accumulation measured after 60 mins in presence of 100% human serum by HTRF assay
Type: functional, cell-based
Settings: not given

Row | Structure (SMILES) | EC50 [µM]
39 | COc1cc(-c2ccc(C3CCc4ccc([C@H](C5CC5)[C@H](C)C(=O)[O-])cc4O3)cc2)c(F)cn1.[Na+] (stereo in doubt; 20) | 0.066
40 | COc1cc(-c2ccc(C3CCc4ccc([C@H](C5CC5)[C@H](C)C(=O)O)cc4O3)nc2)ccn1 (stereo in doubt; 32) | 0.838
41 | COc1cc(-c2ccc(C3CCc4ccc([C@H](C5CC5)[C@H](C)C(=O)[O-])cc4O3)cc2)c(F)cn1.[Na+] (stereo in doubt; 21) | 0.105
42 | COc1cc(-c2ccc(C3CCc4ccc([C@H](C5CC5)[C@H](C)C(=O)[O-])cc4O3)c(F)c2)c(F)cn1.[Na+] (stereo in doubt; 26) | 0.036
43 | COc1cc(-c2ccc(C3CCc4ccc([C@H](C5CC5)[C@H](C)C(=O)[O-])cc4O3)c(F)c2)c(F)cn1.[Na+] (stereo in doubt; 27) | 0.328
44 | COc1ccc(F)c(-c2ccc(C3CCc4ccc([C@H](C5CC5)[C@H](C)C(=O)O)cc4O3)cn2)c1 (stereo in doubt; 18) [listing 2 of 2 here] | 5.33
45 | COc1cc(-c2ccc(C3CCc4ccc([C@H](C5CC5)[C@H](C)C(=O)[O-])cc4O3)cc2)ccn1.[Na+] (stereo in doubt; 23) | 0.521
46 | COc1cc(-c2ccc(C3CCc4ccc([C@H](C5CC5)[C@H](C)C(=O)O)cc4O3)nc2)ccn1 (stereo in doubt; 33) | 0.462
47 | COc1cc(-c2ccc(C3CCc4ccc([C@H](C5CC5)[C@H](C)C(=O)[O-])cc4O3)cc2)ccn1.[Na+] (stereo in doubt; 22) | 0.382
48 | COc1ccc(F)c(-c2ccc(C3CCc4ccc([C@H](C5CC5)[C@H](C)C(=O)O)cc4O3)cn2)c1 (stereo in doubt; 19) | 2.47
49 | COc1cc(-c2ccc(C3CCc4ccc([C@H](C5CC5)[C@H](C)C(=O)[O-])cc4O3)nc2)c(F)cn1.[Na+] (stereo in doubt; 28) | 1.03
50 | COc1cccc(-c2ccc(C3CCc4ccc([C@@H](CC(=O)O)C5CC5)cc4O3)cc2)n1 (mixture of isomers) | > 10
51 | COc1ccc(F)c(-c2ccc(C3CCc4ccc([C@H](C5CC5)[C@H](C)C(=O)O)cc4O3)cc2)c1 (stereo in doubt; 15) | 0.127
52 | O=C(O)C[C@H](c1ccc2c(c1)OC(c1ccc(-c3cccc(OC(F)(F)F)c3)cc1)CC2)C1CC1 (mixture of isomers) | 6.43
53 | COc1cc(-c2cnc(C3CCc4ccc([C@H](C5CC5)[C@H](C)C(=O)O)cc4O3)c(F)c2)c(F)cn1 (stereo in doubt; 30) | 0.382
54 | COc1cc(-c2cnc(C3CCc4ccc([C@H](C5CC5)[C@H](C)C(=O)O)cc4O3)c(F)c2)c(F)cn1 (stereo in doubt; 31) | 0.757
